Values quoted from earlier work as cited in patent US6211219A, “Aminocyclohexane derivatives as 5-HT receptor agonists” (Merck Sharp & Dohme Ltd., priority 1996, dated 2001).

How the values were obtained:
[1] = test system: human 5-HT1Dα and 5-HT1Dβ receptor subtypes; conditions: cf. WO-A-91/17174, Table 1
humans = conditions: therapeutic doses

- discrimination between the human 5-HT1Dα and 5-HT1Dβ receptor subtypes [1]: barely discriminates
Compound: CNS(=O)(=O)Cc1ccc2[nH]cc(CCN(C)C)c2c1 [sumatriptan]
- adverse cardiovascular events on administration to humans (humans): certain adverse cardiovascular events
